Laboratory results as given in PubChem BioAssay AID256 (DTP/NCI, 2004).
“And” between values parts separate entries of the source, which are not always exact repeats. Equal values may be shown once. Toxic doses and inconclusive results are not listed. The calls were made as follows: active = survival T/C of 150% or more; inactive = T/C below 125% in these data. Non-standard residues stand in square brackets, D forms with d. Residues, ends and D or L forms follow the SMILES beside them. Ac5c = NC1(C(=O)O)CCCC1

Tested on: CD2F1 mice, L1210 leukemia ip, survival T/C
Experiment: NCI In Vivo Anticancer Drug Screen. Data for tumor model L1210 Leukemia (intraperitoneal) in CD2F1 (CDF1) mice
Details: endpoint: mean survival time, higher = longer survival
Procedure, shortened: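 Implant tumor; dose compound or vehicle; measure endpoint in both groups; report treated divided by control.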

[1] = dose: 100.0 mg/kg/injection, schedule: Q04DX003 (ip), vehicle: saline with Tween-80
[2] = dose: 200.0 mg/kg/injection, schedule: Q04DX003 (ip), vehicle: saline with Tween-80
[3] = dose: 400.0 mg/kg/injection, schedule: Q04DX003 (ip), vehicle: saline with Tween-80
[4] = dose: 100.0 mg/kg/injection, schedule: Q01DX009 (ip), vehicle: saline with Tween-80
[5] = dose: 200.0 mg/kg/injection, schedule: Q01DX009 (ip), vehicle: saline with Tween-80
[6] = dose: 400.0 mg/kg/injection, schedule: Q01DX009 (ip), vehicle: saline with Tween-80
[7] = dose: 25.0 mg/kg/injection, schedule: Q01DX009 (ip), vehicle: saline with Tween-80
[8] = dose: 50.0 mg/kg/injection, schedule: Q01DX009 (ip), vehicle: saline with Tween-80
[9] = dose: 100.0 mg/kg/injection, schedule: Q01DX001 (ip), vehicle: saline with Tween-80
[10] = dose: 200.0 mg/kg/injection, schedule: Q01DX001 (ip), vehicle: saline with Tween-80
[11] = dose: 100.0 mg/kg/injection, schedule: Q04DX002 (ip), vehicle: saline
[12] = dose: 200.0 mg/kg/injection, schedule: Q04DX002 (ip), vehicle: saline

Measured: T/C

[S-]c1n[n+](-c2ccccc2)c(-c2ccccc2)s1
inactive: dose: 75.0 mg/kg/injection, schedule: Q01DX001 (ip), vehicle: saline with Tween-80 95 % of control | dose: 150.0 mg/kg/injection, schedule: Q01DX001 (ip), vehicle: saline with Tween-80 96 % of control | dose: 300.0 mg/kg/injection, schedule: Q01DX001 (ip), vehicle: saline with Tween-80 102 % of control

COc1cc(C(=O)CC2CCCCN2)ccc1O (configuration not stated)
inactive: dose: 50.0 mg/kg/injection, schedule: Q01DX Z (ip), vehicle: saline 98 % of control | dose: 100.0 mg/kg/injection, schedule: Q01DX Z (ip), vehicle: saline 96 % of control | dose: 200.0 mg/kg/injection, schedule: Q01DX Z (ip), vehicle: saline 100 % of control

NC(N)=NC(N)=Nc1cc(Cl)c(Cl)cc1Cl
inactive: [1] 96 % of control | [2] 96 % of control | [3] 98 % of control

O=C(O)C1C2C=CC(C2)C1C(=O)O (configuration not stated)
inactive: [1] 97 % of control | [2] 92 % of control | [3] 98 % of control

CCCCCCCCC1SC1CCCCCCCCOC(=O)CCCCCCCC1SC1CCCCCCCC (configuration not stated)
inactive: dose: 100.0 mg/kg/injection, schedule: Q04DX003 (ip), vehicle: Klucel (hydroxypropylcellulose) (HPC) 95 % of control | dose: 200.0 mg/kg/injection, schedule: Q04DX003 (ip), vehicle: Klucel (hydroxypropylcellulose) (HPC) 93 % of control | dose: 400.0 mg/kg/injection, schedule: Q04DX003 (ip), vehicle: Klucel (hydroxypropylcellulose) (HPC) 102 % of control

CN(C)c1ccc(/C=C(\C#N)c2ccc(Cl)cc2)c(Cl)c1
inactive: [4] 90 % of control | [1] 86 % of control | [5] 94 % of control | [2] 89 % of control | [6] 90 % of control | [3] 86 % of control

O=C1NCC(C2CC2)(C2CC2)O1
inactive: dose: 100.0 mg/kg/injection, schedule: Q04DX002 (ip), vehicle: saline with Tween-80 108 % of control | dose: 200.0 mg/kg/injection, schedule: Q04DX002 (ip), vehicle: saline with Tween-80 100 % of control | dose: 400.0 mg/kg/injection, schedule: Q04DX002 (ip), vehicle: saline with Tween-80 100 % of control

ClCCOCCOc1ccc(C2CCCCC2)cc1
inactive: dose: 100.0 mg/kg/injection, schedule: Q04DX003 (ip), vehicle: saline sonified 97 % of control | dose: 200.0 mg/kg/injection, schedule: Q04DX003 (ip), vehicle: saline sonified 97 % of control | dose: 400.0 mg/kg/injection, schedule: Q04DX003 (ip), vehicle: saline sonified 92 % of control

CCOC(=O)C1OC12c1cccc3cccc(c13)C21OC1C(=O)OCC (configuration not stated)
inactive: [1] 97 % of control | [2] 95 % of control | [3] 91 % of control

CC(CC(=O)O)(C(=O)O)S(=O)O (configuration not stated)
inactive: dose: 100.0 mg/kg/injection, schedule: Q04DX002 (ip), vehicle: other 97 % of control | dose: 200.0 mg/kg/injection, schedule: Q04DX002 (ip), vehicle: other 100 % of control | dose: 400.0 mg/kg/injection, schedule: Q04DX002 (ip), vehicle: other 100 % of control

O=C(/C=C1\C(=O)Nc2ccccc21)/C=C1/C(=O)Nc2ccccc21
inactive: dose: 25.0 mg/kg/injection, schedule: Q01DX009 (ip), vehicle: Klucel (hydroxypropylcellulose) (HPC) 97 % of control | dose: 50.0 mg/kg/injection, schedule: Q01DX009 (ip), vehicle: Klucel (hydroxypropylcellulose) (HPC) 104 % of control | dose: 100.0 mg/kg/injection, schedule: Q01DX009 (ip), vehicle: Klucel (hydroxypropylcellulose) (HPC) 95 % of control

O=C(O)C1=CC=C(c2ccccc2)C(=O)C1
inactive: dose: 12.5 mg/kg/injection, schedule: Q01DX009 (ip), vehicle: saline with Tween-80 100 % of control | [7] 98 % of control | [8] 88 % of control and 90 % of control | [9] 97 % of control | [10] 93 % of control

Cn1c(=O)c2c(ncn2C2C(=O)NNC2=O)n(C)c1=O
inactive: dose: 12.5 mg/kg/injection, schedule: Q01DX005 (ip), vehicle: distilled water + Tween-80 102 % of control | dose: 25.0 mg/kg/injection, schedule: Q01DX005 (ip), vehicle: distilled water + Tween-80 104 % of control | dose: 50.0 mg/kg/injection, schedule: Q01DX005 (ip), vehicle: distilled water + Tween-80 104 % of control | dose: 100.0 mg/kg/injection, schedule: Q01DX005 (ip), vehicle: distilled water + Tween-80 98 % of control | dose: 200.0 mg/kg/injection, schedule: Q01DX005 (ip), vehicle: distilled water + Tween-80 92 % of control | dose: 400.0 mg/kg/injection, schedule: Q01DX005 (ip), vehicle: distilled water + Tween-80 95 % of control

CN1CC(=O)n2c(cc3ccccc32)C1=O
inactive: dose: 50.0 mg/kg/injection, schedule: Q04DX002 (ip), vehicle: saline 101 % of control | [11] 86 % of control | [12] 93 % of control | dose: 400.0 mg/kg/injection, schedule: Q04DX002 (ip), vehicle: saline 101 % of control

Cc1c(Cl)cccc1NC(=O)Nc1cccc2ccccc12
inactive: [4] 113 % of control | [1] 93 % of control | [5] 102 % of control | [2] 102 % of control | [6] 96 % of control | [3] 100 % of control

O=NN(CS(=O)(=O)O)c1ccccc1
inactive: dose: 50.0 mg/kg/injection, schedule: Q01DX009 (ip), vehicle: saline 101 % of control | dose: 100.0 mg/kg/injection, schedule: Q01DX009 (ip), vehicle: saline 107 % of control | dose: 200.0 mg/kg/injection, schedule: Q01DX009 (ip), vehicle: saline 95 % of control

O=C(CCBr)NCc1ccccc1
inactive: [4] 97 % of control | [1] 92 % of control | [5] 98 % of control | [2] 98 % of control | [6] 97 % of control | [3] 95 % of control

CC(C)C1=CC2=CCC3C(C)(C(=O)O)CCCC3(C)C2CC1 (configuration not stated)
inactive: [7] 103 % of control | [8] 98 % of control | [9] 98 % of control | [4] 96 % of control | [10] 95 % of control | [5] 96 % of control | dose: 400.0 mg/kg/injection, schedule: Q01DX001 (ip), vehicle: saline with Tween-80 102 % of control | [6] 97 % of control

CC(C)OC(=O)c1cc([N+](=O)[O-])c(Sc2ncnc3nc[nH]c23)c([N+](=O)[O-])c1
inactive: dose: 0.63 mg/kg/injection, schedule: Q01DX005 (ip), vehicle: other 109 % of control | dose: 1.25 mg/kg/injection, schedule: Q01DX005 (ip), vehicle: other 119 % of control | dose: 2.5 mg/kg/injection, schedule: Q01DX005 (ip), vehicle: other 114 % of control | dose: 5.0 mg/kg/injection, schedule: Q01DX005 (ip), vehicle: other 124 % of control | dose: 9.9 mg/kg/injection, schedule: Q01DX005 (ip), vehicle: other 115 % of control | dose: 100.0 mg/kg/injection, schedule: Q01DX005 (ip), vehicle: other 89 % of control
active: dose: 25.0 mg/kg/injection, schedule: Q01DX005 (ip), vehicle: other 157 % of control | dose: 33.3 mg/kg/injection, schedule: Q01DX005 (ip), vehicle: other 158 % of control | dose: 50.0 mg/kg/injection, schedule: Q01DX005 (ip), vehicle: other 151 % of control and 178 % of control and 184 % of control

COc1ccccc1N1CCCSC1=Nc1ccccc1
inactive: [11] 98 % of control | [12] 94 % of control

S=C(S)NC1CCCCC1
inactive: dose: 6.0 mg/kg/injection, schedule: Q04DX003 (ip), vehicle: saline with Tween-80 98 % of control | dose: 12.0 mg/kg/injection, schedule: Q04DX003 (ip), vehicle: saline with Tween-80 102 % of control | dose: 24.0 mg/kg/injection, schedule: Q04DX003 (ip), vehicle: saline with Tween-80 94 % of control

CCn1ncc2ccc(N(CO)CO)cc21
inactive: dose: 100.0 mg/kg/injection, schedule: Q04DX003 (ip), vehicle: saline 103 % of control | dose: 200.0 mg/kg/injection, schedule: Q04DX003 (ip), vehicle: saline 106 % of control | dose: 400.0 mg/kg/injection, schedule: Q04DX003 (ip), vehicle: saline 100 % of control

NCC(=O)NC1(C(=O)O)CCCC1 (H-Gly-[Ac5c]-OH)
active: dose: 500.0 mg/kg/injection, schedule: Q04DX003 (ip), vehicle: saline 152 % of control
inactive: dose: 62.5 mg/kg/injection, schedule: Q01DX001 (ip), vehicle: saline 87 % of control | dose: 62.5 mg/kg/injection, schedule: Q04DX003 (ip), vehicle: saline 107 % of control | dose: 125.0 mg/kg/injection, schedule: Q01DX001 (ip), vehicle: saline 91 % of control | dose: 125.0 mg/kg/injection, schedule: Q04DX003 (ip), vehicle: saline 107 % of control | dose: 250.0 mg/kg/injection, schedule: Q01DX001 (ip), vehicle: saline 112 % of control
